The source made the active and inactive calls. The rule behind the calls is not given here.
What was measured:
KB = assay: Anti-proliferative activity against human KB cells after 72 hrs by MTT assay; format: functional, cell-based
[1] = Anti-proliferative activity against human HT1080 cells after 72 hrs by MTT assay; format: functional, cell-based; conditions: HT-1080, 72 h
[2] = Anti-proliferative activity against human SGC7901 cells after 72 hrs by MTT assay; format: functional, cell-based; conditions: SGC-7901, 72 h
SGC-7901 = assay: Induction of microtubule network disruption in human SGC7901 cells at 0.4 uM after 24 hrs using DAPI immunofluorescence staining; format: cell-based
Tubulin (Homo sapiens) [3] = target: T1, Tubulin (Homo sapiens) (UniProt P68371+Q9H4B7+P0DPH7+P68366+Q13509+Q71U36+P04350+Q3ZCM7+P07437+P68363+Q9BQE3+Q6PEY2+Q13885+Q9BVA1+Q9BUF5); assay: Inhibition of tubulin (unknown origin) polymerization at 4 uM pre-incubated for 1 min measured for 1 min interval for 90 mins by fluorescence based assay; format: protein-complex assay
Tubulin (Homo sapiens) [4] = target: T1, Tubulin (Homo sapiens); assay: (§1) Inhibition of tubulin (unknown origin) polymerization pre-incubated for 1 min measured for 1 min interval for 90 mins by fluorescence based assay; format: protein-complex assay
Tubulin = assay: as §1; format: protein-complex assay, Homo sapiens
Tubulin (Homo sapiens) [5] = target: T1, Tubulin (Homo sapiens); assay: Inhibition of tubulin (unknown origin) polymerization at 10 uM pre-incubated for 1 min measured for 1 min interval for 90 mins by fluorescence based assay; format: protein-complex assay
Tubulin (Homo sapiens) [6] = target: T1, Tubulin (Homo sapiens); assay: Inhibition of tubulin (unknown origin) polymerization at 2 uM pre-incubated for 1 min measured for 1 min interval for 90 mins by fluorescence based assay; format: protein-complex assay
Tubulin (Homo sapiens) [7] = target: T1, Tubulin (Homo sapiens); assay: Inhibition of tubulin (unknown origin) polymerization at 1 uM pre-incubated for 1 min measured for 1 min interval for 90 mins by fluorescence based assay; format: protein-complex assay
Tubulin (Homo sapiens) [8] = target: T1, Tubulin (Homo sapiens); assay: Inhibition of tubulin (unknown origin) polymerization at 15 uM pre-incubated for 1 min measured for 1 min interval for 90 mins by fluorescence based assay; format: protein-complex assay
Tubulin (Homo sapiens) [9] = target: T1, Tubulin (Homo sapiens); assay: Inhibition of tubulin (unknown origin) polymerization at 2.5 uM pre-incubated for 1 min measured for 1 min interval for 90 mins by fluorescence based assay; format: protein-complex assay
Tubulin (Homo sapiens) [10] = target: T1, Tubulin (Homo sapiens); assay: Inhibition of tubulin (unknown origin) polymerization at 5 uM pre-incubated for 1 min measured for 1 min interval for 90 mins by fluorescence based assay; format: protein-complex assay

SMILES	IC50 (KB) [µM]	IC50 [1] [µM]	IC50 [2] [µM]	other results
CCOC(=O)c1cc(-c2ccc(OC)c(O)c2)c(-c2cc(OC)c(OC)c(OC)c2)s1	> 100	82.5	20	–
COc1ccc(-c2sccc2-c2cc(OC)c(OC)c(OC)c2)cc1OCc1ccccc1	> 100	> 100	> 100	–
COc1ccc(/C=C\c2cc(OC)c(OC)c(OC)c2)cc1O [COMBRETASTATIN A4]	0.016	0.011	0.024	Activity (SGC-7901): Active
COc1ccc(-c2sccc2-c2cc(OC)c(OC)c(OC)c2)cc1[N+](=O)[O-]	10.6	2.1	3.31	–
COc1ccc(-c2ccsc2-c2cc(OC)c(OC)c(OC)c2)cc1O	1.53	2.12	0.52	inhibition (Tubulin (Homo sapiens) [3]): 39.3%; inhibition (Tubulin (Homo sapiens) [4]): Dose-dependent effect; IC50 (Tubulin): 5.01 µM; Activity (SGC-7901): Active; inhibition (Tubulin (Homo sapiens) [5]): 87.5%; inhibition (Tubulin (Homo sapiens) [6]): 23.3%; inhibition (Tubulin (Homo sapiens) [7]): 10%
COc1ccc(-c2cc(C(=O)O)sc2-c2cc(OC)c(OC)c(OC)c2)cc1O	21.8	11.4	17.5	–
CCOC(=O)c1cc(-c2cc(OC)c(OC)c(OC)c2)c(-c2ccc(OC)c(OCc3ccccc3)c2)s1	> 100	> 100	> 100	–
COc1ccc(-c2sc(C(=O)O)cc2-c2cc(OC)c(OC)c(OC)c2)cc1[N+](=O)[O-]	35.9	37.2	23.3	–
COc1ccc(-c2sccc2-c2cc(OC)c(OC)c(OC)c2)cc1	8.88	4.59	5.47	–
CCOC(=O)c1cc(-c2cc(OC)c(OC)c(OC)c2)c(-c2ccc(OC)c(O)c2)s1	1.25	3.22	1.58	–
COc1ccc(-c2cc(C(=O)O)sc2-c2cc(OC)c(OC)c(OC)c2)cc1OCc1ccccc1	> 100	> 100	> 100	–
CCOC(=O)c1cc(-c2cc(OC)c(OC)c(OC)c2)c(-c2ccc(OC)cc2)s1	13.2	8.37	9.76	–
COc1ccc(-c2sc(C(=O)O)cc2-c2cc(OC)c(OC)c(OC)c2)cc1	10.4	6.77	7.8	–
COc1cc(-c2cc(C(=O)O)sc2-c2ccc3ccccc3c2)cc(OC)c1OC	5.64	13.4	0.38	–
CCOC(=O)c1cc(-c2cc(OC)c(OC)c(OC)c2)c(-c2ccc(OC)c([N+](=O)[O-])c2)s1	15.8	12.7	18.1	–
COc1ccc(-c2cc(C(=O)O)sc2-c2cc(OC)c(OC)c(OC)c2)cc1[N+](=O)[O-]	43.7	38.1	21.6	–

SMILES	IC50 (KB) [µM]	IC50 [1] [µM]	IC50 [2] [µM]	other results
COc1ccc(-c2ccsc2-c2cc(OC)c(OC)c(OC)c2)cc1OCc1ccccc1	> 100	> 100	> 100	–
COc1cc(-c2cc(C(=O)O)sc2-c2cccc(Br)c2)cc(OC)c1OC	32.3	> 100	93.4	–
CCOC(=O)c1cc(-c2ccc(OC)cc2)c(-c2cc(OC)c(OC)c(OC)c2)s1	10.2	7.63	6.82	–
CCOC(=O)c1cc(-c2ccc(OC)c(OCc3ccccc3)c2)c(-c2cc(OC)c(OC)c(OC)c2)s1	> 100	> 100	> 100	–
COc1ccc(-c2ccsc2-c2cc(OC)c(OC)c(OC)c2)cc1[N+](=O)[O-]	21	8.04	10.2	–
COc1cc(-c2ccsc2-c2ccc3ccccc3c2)cc(OC)c1OC	3.66	5.43	5.89	–
COc1cc(-c2ccsc2-c2cccc(Br)c2)cc(OC)c1OC	> 100	> 100	46.1	–
COc1ccc(-c2cc(C(=O)O)sc2-c2cc(OC)c(OC)c(OC)c2)cc1	8.65	5.81	4.22	–
CCOC(=O)c1cc(-c2cc(OC)c(OC)c(OC)c2)c(-c2cccc(Br)c2)s1	> 100	> 100	> 100	–
CCOC(=O)c1cc(-c2cc(OC)c(OC)c(OC)c2)c(-c2ccc3ccccc3c2)s1	5.89	1.15	4.34	–
COc1ccc(-c2sccc2-c2cc(OC)c(OC)c(OC)c2)cc1O	6.27	1.94	0.58	inhibition (Tubulin (Homo sapiens) [4]): Dose-dependent effect; IC50 (Tubulin): 9.76 µM; inhibition (Tubulin (Homo sapiens) [5]): 48%; inhibition (Tubulin (Homo sapiens) [8]): 72.3%; inhibition (Tubulin (Homo sapiens) [9]): 7.4%; inhibition (Tubulin (Homo sapiens) [10]): 20%
COc1ccc(-c2sc(C(=O)O)cc2-c2cc(OC)c(OC)c(OC)c2)cc1O	11.2	7.51	6.1	–
COc1ccc(-c2sc(C(=O)O)cc2-c2cc(OC)c(OC)c(OC)c2)cc1OCc1ccccc1	> 100	> 100	> 100	–
CCOC(=O)c1cc(-c2ccc(OC)c([N+](=O)[O-])c2)c(-c2cc(OC)c(OC)c(OC)c2)s1	24	26.1	19.4	–
COc1ccc(-c2ccsc2-c2cc(OC)c(OC)c(OC)c2)cc1	7.4	3.62	2.74	–

Reference: ChEMBL document CHEMBL3739424, “Synthesis and biological evaluation of 2,3-diarylthiophene analogues of combretastatin A-4” (Medchemcomm, 2015)
